Experimental data taken from patent US20220260565A1, “METHODS OF TREATING AND DIAGNOSING INFLAMMATORY BOWEL DISEASE” (priority 2018, published 2022).

Experiments:
fungal microbiota = assay: Fungal microbiota in stool of antifungal-treated mice (ITS1 sequencing); assay type: in vivo; conditions: 3 weeks in drinking water, stool DNA
Method: (§1) FIG. 24A-24D Antifungal treatment affects bacterial and fungal microbiota in mice. Mice were treated or not for 3 weeks with fluconazole or amphotericin B in their drinking water, DNA was isolated from stool, and fungal and bacterial communities were assessed by sequencing ITS1 and 16S rDNA regions respectively. […] D) Examples of bacteria (families) regulated upon antifungal treatment. * p<0.05; ** p<0.01; *** p<0.001; LDA scores from LEfSe analysis.
(§2) We will investigate the impact of antifungal therapy on the mucosa-associated microbiota in patients by examining samples collected before and after anti-fungal therapy. We will investigate the association between the mycobiota detected by high-throughput ITS (fungal) and 16S (bacterial) rDNA sequencing as well as targeted quantitative PCR in colonic washes, biopsies, and fecal samples. In preliminary studies in mice, we have observed that oral treatment with antifungal drugs (we have tried several) alters the fungal microbiota in fecal samples, which is, of course, not surprising (FIGS. 24A&C), but it also affects the bacterial microbiota (FIGS. 24B&D). The interrelationship between bacterial and fungal microbiota and the susceptibility of these communities to manipulation by antifungal drugs in mice is being further studied in other funded work. […]

bacterial microbiota = assay: Bacterial microbiota in stool of antifungal-treated mice (16S rDNA sequencing); assay type: in vivo; conditions: 3 weeks in drinking water, stool DNA
Method: as §1, §2

Malassezia = Malassezia levels in stool of mice after oral fluconazole (rDNA sequencing); assay type: in vivo; conditions: oral fluconazole for 1 week
Method: FIG. 22 depicts Efficacy of azole drug on colonic Malassezia in mice. Mice were treated with oral fluconazole for 1 week, and Malassezia levels were measured in the stool by rDNA sequencing.

[1] = system: acute colitis induced by DSS in wild type and Clec7a−/− mice; assay: DSS colitis in wild type and Dectin-1-deficient (Clec7a-/-) mice treated with fluconazole; assay type: in vivo; conditions: DSS in drinking water
Text: DSS colitis in Dectin-1-deficient mice: The inventors examined whether defective immune recognition of fungi could have an impact on colitis and looked at the effects of inducing acute colitis in mice lacking Dectin-1 (Clec7a−/−). The inventors co-housed wild type and Clec7a−/− mice for two weeks before inducing acute colitis by administration of 3% DSS in the drinking water. […] Consistent with the histology, the inventors detected augmented production of IFN-γ and IL-17 in mesenteric lymph nodes (MLNs) and colons from Clec7a−/− mice (FIG. 12D, 12E). Furthermore, in colons of Clec7a−/− mice the inventors detected increased message for TNF-α, IL-23p19 and IL-17a, cytokines previously associated with intestinal inflammation (Not shown).

[2] = in vivo; cited from earlier work
Malassezia spp. = conditions: cited from earlier work
[3] = from package insert; cited from earlier work

SMILES	effect on fungal microbiota (ITS1 sequencing) (fungal microbiota)	effect on bacterial microbiota (16S sequencing, LEfSe) (bacterial microbiota)	Malassezia levels in the stool (Malassezia)	effect on colitis ([1]; Dectin-1 knockout (Clec7a−/−) animals)	effect on colitis ([1]; wild type animals)	concentration in feces [2]	first pass effect [2]	MIC against most Malassezia spp. (Malassezia spp.)	common adverse events in clinical trials [3]
C[C@@H]1[C@H](O)[C@@H](C)/C=C/C=C/C=C/C=C/C=C/C=C/C=C/[C@H](O[C@@H]2O[C@H](C)[C@@H](O)[C@H](N)[C@@H]2O)C[C@@H]2O[C@](O)(C[C@@H](O)C[C@@H](O)[C@H](O)CC[C@@H](O)C[C@@H](O)CC(=O)O[C@H]1C)C[C@H](O)[C@H]2C(=O)O [amphotericin B]	alter the fungal community	changes in bacterial microbiota	–	–	–	–	–	–	–
OC(Cn1cncn1)(Cn1cncn1)c1ccc(F)cc1F [fluconazole]	alter the fungal community	changes in bacterial microbiota	depletion of Malassezia from the stool	abrogated colitis	little or no effect	–	–	–	–
CC[C@@H]([C@H](C)O)n1ncn(-c2ccc(N3CCN(c4ccc(OC[C@@H]5CO[C@@](Cn6cncn6)(c6ccc(F)cc6F)C5)cc4)CC3)cc2)c1=O [posaconazole]	–	–	–	–	–	high	low	low	diarrhea, dyspepsia, nausea, fever, headache, coughing, and hypokalemia
